Columns and labels:
[1] = target: cGMP-dependent protein kinase (Plasmodium falciparum, UniProt W7JX98); assay: Inhibition of Plasmodium falciparum protein kinase G
Plasmodium falciparum = assay: Antimalarial activity against Plasmodium falciparum after 48 hrs by microbeta scintillation counting-based [3H]-hypoxanthine incorporation assay; assay type: functional, organism-based
[2] = target: Casein kinase I isoform alpha (Homo sapiens) (UniProt P48729); assay: Inhibition of human CK1 at 100 nM
Homo sapiens = organism: Homo sapiens; settings: at 100 nM
Description: Inhibition of human PKA at 100 nM

[3] = target: T1, Inhibitor of nuclear factor kappa-B kinase subunit beta (Homo sapiens) (UniProt O14920); settings: at 100 nM
T1 sequence (whole entry): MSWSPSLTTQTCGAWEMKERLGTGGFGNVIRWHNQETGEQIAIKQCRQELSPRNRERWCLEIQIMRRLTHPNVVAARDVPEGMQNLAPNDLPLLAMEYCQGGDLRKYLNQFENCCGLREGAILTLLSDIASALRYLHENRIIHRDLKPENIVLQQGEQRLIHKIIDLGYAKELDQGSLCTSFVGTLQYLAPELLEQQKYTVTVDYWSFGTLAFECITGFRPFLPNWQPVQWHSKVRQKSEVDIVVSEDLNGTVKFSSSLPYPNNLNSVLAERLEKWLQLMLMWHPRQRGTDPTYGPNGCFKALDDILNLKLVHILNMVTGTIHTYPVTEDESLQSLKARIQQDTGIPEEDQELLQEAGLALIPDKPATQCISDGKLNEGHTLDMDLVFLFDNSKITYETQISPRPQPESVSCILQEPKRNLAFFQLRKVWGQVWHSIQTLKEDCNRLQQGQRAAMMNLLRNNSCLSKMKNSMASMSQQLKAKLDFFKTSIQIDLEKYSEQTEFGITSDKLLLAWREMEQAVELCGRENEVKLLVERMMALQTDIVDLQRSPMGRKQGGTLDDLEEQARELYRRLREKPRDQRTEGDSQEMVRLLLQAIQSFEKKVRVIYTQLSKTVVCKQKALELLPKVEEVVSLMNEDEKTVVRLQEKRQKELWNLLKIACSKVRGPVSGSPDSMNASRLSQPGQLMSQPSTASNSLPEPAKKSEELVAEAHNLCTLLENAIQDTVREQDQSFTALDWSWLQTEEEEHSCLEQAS
Description: Inhibition of human IKKb at 100 nM

[4] = target: T2, Serine/threonine-protein kinase D1 (Homo sapiens) (UniProt Q15139); assay: Inhibition of human PKD1 at 100 nM
T2 sequence (whole entry): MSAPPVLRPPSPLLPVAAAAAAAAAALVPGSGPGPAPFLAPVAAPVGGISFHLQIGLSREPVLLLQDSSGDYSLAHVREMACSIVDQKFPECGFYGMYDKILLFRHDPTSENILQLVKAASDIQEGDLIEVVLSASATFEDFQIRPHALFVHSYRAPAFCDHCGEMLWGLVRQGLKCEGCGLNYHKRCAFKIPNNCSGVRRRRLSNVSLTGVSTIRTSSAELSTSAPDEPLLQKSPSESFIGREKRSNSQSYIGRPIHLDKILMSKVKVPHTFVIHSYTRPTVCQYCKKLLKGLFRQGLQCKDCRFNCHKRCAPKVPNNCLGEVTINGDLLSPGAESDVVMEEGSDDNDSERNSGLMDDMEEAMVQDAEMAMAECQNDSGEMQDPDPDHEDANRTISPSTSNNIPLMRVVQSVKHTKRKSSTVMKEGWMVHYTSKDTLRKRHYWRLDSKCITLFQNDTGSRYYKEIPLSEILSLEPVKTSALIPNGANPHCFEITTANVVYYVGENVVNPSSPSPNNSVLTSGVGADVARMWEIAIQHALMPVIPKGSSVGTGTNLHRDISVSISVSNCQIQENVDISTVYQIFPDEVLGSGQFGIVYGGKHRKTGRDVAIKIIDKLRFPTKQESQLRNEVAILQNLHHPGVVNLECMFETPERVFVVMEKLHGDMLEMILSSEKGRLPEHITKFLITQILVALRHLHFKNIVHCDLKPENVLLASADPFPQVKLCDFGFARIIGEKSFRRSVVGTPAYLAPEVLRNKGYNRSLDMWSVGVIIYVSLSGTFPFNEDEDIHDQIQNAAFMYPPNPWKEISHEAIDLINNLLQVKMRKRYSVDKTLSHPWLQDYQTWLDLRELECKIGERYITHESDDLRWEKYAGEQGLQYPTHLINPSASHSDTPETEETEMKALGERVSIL

[5] = target: Tyrosine-protein kinase Yes (Homo sapiens) (UniProt P07947); assay: Inhibition of human YES1 at 100 nM
[6] = target: Tyrosine-protein kinase Lck (Homo sapiens) (UniProt P06239); assay: Inhibition of human LCK at 100 nM
[7] = target: T3, Inhibitor of nuclear factor kappa-B kinase subunit epsilon (Homo sapiens) (UniProt Q14164); settings: at 100 nM
T3 sequence (whole entry): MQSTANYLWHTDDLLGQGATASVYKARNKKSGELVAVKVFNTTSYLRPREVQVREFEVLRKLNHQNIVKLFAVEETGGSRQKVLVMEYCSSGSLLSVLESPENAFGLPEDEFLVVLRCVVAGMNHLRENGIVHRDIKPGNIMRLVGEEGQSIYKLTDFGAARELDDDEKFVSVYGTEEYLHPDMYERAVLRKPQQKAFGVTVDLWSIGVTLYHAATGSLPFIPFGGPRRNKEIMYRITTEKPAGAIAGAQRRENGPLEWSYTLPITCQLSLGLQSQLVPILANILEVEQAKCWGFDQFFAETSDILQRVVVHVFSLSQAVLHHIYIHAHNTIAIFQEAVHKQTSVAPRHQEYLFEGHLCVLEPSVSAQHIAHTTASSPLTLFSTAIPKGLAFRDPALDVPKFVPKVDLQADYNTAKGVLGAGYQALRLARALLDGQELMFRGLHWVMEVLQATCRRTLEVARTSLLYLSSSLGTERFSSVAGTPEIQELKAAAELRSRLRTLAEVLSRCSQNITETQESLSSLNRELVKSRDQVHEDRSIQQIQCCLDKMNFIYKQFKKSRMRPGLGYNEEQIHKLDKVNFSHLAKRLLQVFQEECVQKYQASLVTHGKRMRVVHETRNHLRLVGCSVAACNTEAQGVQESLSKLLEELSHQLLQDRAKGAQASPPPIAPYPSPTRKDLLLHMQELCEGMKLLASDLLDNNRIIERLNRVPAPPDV
Description: Inhibition of human IKKepsilon at 100 nM

[8] = target: Receptor tyrosine-protein kinase erbB-4 (Homo sapiens) (UniProt Q15303); assay: Inhibition of human HER4 at 100 nM
[9] = target: Misshapen-like kinase 1 (Homo sapiens) (UniProt Q8N4C8); assay: Inhibition of human MINK1 at 100 nM
Chain of Misshapen-like kinase 1 (Homo sapiens) (Q8N4C8 whole entry, looked up): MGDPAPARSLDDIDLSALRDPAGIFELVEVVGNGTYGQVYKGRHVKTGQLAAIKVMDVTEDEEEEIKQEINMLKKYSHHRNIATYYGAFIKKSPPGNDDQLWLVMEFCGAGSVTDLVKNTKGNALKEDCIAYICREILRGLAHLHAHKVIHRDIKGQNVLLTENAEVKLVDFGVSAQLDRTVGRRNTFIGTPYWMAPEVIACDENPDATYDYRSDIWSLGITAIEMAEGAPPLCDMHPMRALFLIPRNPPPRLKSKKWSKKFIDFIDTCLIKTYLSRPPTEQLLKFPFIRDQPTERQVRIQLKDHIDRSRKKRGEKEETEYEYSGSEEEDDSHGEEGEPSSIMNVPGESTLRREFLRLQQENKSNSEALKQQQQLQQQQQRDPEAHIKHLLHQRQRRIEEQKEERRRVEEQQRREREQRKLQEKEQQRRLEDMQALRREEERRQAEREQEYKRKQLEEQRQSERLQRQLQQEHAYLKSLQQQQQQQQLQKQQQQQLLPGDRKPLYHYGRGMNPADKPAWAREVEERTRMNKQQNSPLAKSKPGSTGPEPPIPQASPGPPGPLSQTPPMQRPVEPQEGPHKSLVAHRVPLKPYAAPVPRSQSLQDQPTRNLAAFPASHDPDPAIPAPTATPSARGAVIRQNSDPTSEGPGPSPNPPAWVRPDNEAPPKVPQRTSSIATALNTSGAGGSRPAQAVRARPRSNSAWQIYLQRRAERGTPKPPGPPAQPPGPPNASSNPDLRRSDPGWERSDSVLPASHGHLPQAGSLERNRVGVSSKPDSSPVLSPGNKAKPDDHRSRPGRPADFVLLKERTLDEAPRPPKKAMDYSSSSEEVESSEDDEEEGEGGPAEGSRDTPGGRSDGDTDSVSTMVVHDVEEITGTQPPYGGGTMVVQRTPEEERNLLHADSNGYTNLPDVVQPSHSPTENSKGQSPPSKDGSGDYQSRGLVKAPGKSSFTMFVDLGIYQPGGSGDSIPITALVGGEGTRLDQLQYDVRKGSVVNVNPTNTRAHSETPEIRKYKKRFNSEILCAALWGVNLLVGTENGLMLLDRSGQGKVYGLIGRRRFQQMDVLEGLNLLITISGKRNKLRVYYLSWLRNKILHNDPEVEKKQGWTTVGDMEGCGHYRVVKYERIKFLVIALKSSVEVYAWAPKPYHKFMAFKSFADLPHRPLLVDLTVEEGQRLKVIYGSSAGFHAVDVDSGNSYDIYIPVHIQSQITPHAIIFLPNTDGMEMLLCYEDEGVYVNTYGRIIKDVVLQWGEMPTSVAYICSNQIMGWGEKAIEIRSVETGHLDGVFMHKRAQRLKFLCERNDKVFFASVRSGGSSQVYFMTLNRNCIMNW

Chain of cGMP-dependent protein kinase (W7JX98 whole entry): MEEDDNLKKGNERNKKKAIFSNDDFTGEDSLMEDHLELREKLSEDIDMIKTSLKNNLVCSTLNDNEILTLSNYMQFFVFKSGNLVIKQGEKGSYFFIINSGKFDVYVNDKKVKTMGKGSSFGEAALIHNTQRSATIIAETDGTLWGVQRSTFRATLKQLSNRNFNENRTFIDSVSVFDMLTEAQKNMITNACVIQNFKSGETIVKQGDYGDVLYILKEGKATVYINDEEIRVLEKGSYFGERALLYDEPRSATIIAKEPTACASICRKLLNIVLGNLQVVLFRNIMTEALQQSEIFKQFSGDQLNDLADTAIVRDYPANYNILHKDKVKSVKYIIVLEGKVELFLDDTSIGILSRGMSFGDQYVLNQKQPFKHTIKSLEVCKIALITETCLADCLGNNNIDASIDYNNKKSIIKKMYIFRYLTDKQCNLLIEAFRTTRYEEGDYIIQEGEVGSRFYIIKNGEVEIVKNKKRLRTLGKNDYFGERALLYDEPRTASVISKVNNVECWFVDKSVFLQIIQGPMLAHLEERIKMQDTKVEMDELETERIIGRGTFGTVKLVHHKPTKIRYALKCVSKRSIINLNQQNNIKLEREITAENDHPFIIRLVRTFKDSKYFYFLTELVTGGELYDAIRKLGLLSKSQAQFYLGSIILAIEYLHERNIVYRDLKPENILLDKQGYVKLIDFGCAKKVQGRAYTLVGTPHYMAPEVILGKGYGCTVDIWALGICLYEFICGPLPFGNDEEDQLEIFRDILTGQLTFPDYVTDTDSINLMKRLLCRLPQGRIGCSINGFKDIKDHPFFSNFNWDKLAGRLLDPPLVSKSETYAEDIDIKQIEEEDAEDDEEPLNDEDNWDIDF
Chain of Tyrosine-protein kinase Yes (Homo sapiens) (P07947 2-543 limits assumed): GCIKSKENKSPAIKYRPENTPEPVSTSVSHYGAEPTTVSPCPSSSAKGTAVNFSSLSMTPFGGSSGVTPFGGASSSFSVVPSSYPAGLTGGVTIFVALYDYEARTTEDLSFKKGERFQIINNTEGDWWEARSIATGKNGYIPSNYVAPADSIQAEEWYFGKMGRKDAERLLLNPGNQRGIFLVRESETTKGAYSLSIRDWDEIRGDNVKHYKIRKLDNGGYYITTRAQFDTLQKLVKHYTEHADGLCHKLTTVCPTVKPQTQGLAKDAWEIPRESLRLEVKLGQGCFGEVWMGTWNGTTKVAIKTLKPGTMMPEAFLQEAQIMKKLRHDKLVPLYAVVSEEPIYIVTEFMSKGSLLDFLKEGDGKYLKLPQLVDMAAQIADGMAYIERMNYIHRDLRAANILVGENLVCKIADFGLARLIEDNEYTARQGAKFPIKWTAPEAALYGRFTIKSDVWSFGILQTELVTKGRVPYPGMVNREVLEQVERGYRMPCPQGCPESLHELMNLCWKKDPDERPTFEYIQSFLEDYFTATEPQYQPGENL
Chain of Receptor tyrosine-protein kinase erbB-4 (Homo sapiens) (Q15303 whole entry): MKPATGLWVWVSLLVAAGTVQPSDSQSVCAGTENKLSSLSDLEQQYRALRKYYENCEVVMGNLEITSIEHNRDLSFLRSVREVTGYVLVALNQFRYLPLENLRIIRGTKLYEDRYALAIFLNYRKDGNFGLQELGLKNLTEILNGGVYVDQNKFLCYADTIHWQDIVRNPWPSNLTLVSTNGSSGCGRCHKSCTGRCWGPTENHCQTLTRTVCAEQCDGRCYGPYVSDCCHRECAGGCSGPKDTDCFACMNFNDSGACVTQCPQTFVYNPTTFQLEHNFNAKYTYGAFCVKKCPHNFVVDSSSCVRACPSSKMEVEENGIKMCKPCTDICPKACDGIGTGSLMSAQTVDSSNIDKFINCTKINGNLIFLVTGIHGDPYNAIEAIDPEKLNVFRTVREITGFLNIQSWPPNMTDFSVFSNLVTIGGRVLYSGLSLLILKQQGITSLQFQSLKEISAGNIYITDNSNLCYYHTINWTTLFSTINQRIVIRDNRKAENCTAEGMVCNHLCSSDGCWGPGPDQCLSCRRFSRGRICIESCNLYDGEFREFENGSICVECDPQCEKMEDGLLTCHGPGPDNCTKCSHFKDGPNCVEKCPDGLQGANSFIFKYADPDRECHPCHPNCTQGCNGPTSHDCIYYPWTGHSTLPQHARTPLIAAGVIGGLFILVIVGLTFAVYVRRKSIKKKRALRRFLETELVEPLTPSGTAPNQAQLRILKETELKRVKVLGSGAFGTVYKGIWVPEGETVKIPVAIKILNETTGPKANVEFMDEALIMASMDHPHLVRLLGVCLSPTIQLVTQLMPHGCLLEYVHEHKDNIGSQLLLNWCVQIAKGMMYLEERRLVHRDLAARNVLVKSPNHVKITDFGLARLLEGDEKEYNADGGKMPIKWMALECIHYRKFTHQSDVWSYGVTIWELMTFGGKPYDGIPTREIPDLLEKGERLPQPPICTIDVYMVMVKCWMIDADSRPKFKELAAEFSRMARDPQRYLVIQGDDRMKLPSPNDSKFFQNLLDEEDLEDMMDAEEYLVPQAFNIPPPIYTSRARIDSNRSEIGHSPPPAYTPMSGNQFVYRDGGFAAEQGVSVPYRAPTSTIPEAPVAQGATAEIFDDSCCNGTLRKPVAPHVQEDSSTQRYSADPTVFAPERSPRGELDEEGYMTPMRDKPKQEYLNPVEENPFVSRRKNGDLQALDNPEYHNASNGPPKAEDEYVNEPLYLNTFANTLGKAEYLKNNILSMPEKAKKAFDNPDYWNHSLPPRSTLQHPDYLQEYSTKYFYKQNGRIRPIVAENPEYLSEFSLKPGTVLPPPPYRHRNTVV
Chain of Tyrosine-protein kinase Lck (Homo sapiens) (P06239 2-509 limits assumed): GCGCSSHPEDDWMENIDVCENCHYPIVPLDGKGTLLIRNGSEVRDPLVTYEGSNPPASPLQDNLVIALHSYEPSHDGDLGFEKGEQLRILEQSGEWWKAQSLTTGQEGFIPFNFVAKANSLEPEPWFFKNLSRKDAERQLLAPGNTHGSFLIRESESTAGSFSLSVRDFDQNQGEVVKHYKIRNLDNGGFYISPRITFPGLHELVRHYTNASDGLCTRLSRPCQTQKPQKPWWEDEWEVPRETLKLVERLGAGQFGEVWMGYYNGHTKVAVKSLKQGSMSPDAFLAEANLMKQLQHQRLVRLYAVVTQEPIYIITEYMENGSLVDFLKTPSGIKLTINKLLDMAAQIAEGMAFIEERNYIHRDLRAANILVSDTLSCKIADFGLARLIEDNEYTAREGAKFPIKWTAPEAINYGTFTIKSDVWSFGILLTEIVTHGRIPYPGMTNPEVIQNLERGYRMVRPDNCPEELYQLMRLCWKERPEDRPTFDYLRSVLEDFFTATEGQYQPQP
Chain of Casein kinase I isoform alpha (Homo sapiens) (P48729 2-337 limits assumed): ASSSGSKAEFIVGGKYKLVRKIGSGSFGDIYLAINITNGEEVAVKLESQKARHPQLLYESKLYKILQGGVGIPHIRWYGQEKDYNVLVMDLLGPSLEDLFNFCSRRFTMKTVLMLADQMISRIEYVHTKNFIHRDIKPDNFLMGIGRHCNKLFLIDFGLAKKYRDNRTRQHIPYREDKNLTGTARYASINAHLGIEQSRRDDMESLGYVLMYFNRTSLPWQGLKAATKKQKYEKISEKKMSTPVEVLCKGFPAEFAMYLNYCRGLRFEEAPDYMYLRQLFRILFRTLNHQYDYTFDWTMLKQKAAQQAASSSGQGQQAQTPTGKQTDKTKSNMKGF

| Structure (SMILES) | IC50 [1] | EC50 (Plasmodium falciparum) | further results |
| --- | --- | --- | --- |
| CN1CCC(c2cc(-c3ccncc3)c(-c3ccc(F)cc3)[nH]2)CC1 | 6 nM | 450 nM |  |
| CN1CCC(c2nc(-c3ccc(F)cc3)c(-c3ccnc(Nc4ccc(N5CCN(C)CC5)cc4)n3)s2)CC1 | 1 nM | 155 nM |  |
| CN1CCC(c2nc(-c3cccc(S(C)(=O)=O)c3)c(-c3ccnc(NC4CC4)n3)s2)CC1 | 17 nM |  |  |
| CN(C)Cc1ccn2c(-c3ccnc(N)n3)c(-c3ccc(F)cc3)nc2c1 | 3 nM | 400 nM |  |
| CNc1nccc(-c2sc(C3CCN(C)CC3)nc2-c2ccc(F)cc2)n1 | 15 nM | 1490 nM |  |
| CN1CCC(c2nc(-c3ccc(F)cc3)c(-c3ccnc(N)n3)s2)CC1 | 17 nM | 1810 nM |  |
| CN1CCC(c2nc(-c3ccc(F)cc3)c(-c3ccncn3)s2)C1 (stereo not given) | 6 nM | 144 nM |  |
| CN1CCC(c2nc(-c3ccc(F)cc3)c(-c3ccnc(Nc4ccc(N5CCNCC5)cc4)n3)s2)CC1 |  |  | inhibition [2]: > 90%; inhibition (Homo sapiens): < 70%; inhibition [3]: < 70%; inhibition [4]: > 90%; inhibition [5]: > 90%; inhibition [6]: > 90%; inhibition [7]: < 70%; inhibition [8]: > 90%; inhibition [9]: > 90% |
| CN1CCC(c2nc(C3CC3)c(-c3ccnc(Nc4ccc(N5CCNCC5)cc4)n3)s2)CC1 | 47 nM | 90 nM |  |
| Fc1ccc(-c2nc(C3CCNCC3)sc2-c2ccnc(Nc3ccc(N4CCNCC4)cc3)n2)cc1 | 0.5 nM | 73 nM |  |
| CN1CCC(c2nc(-c3ccc(F)cc3)c(-c3ccnc(Nc4ccc(C5CCNCC5)cc4)n3)s2)CC1 | 0.3 nM | 25 nM |  |
| Cc1nc(C2CCN(C)CC2)sc1-c1ccnc(Nc2ccc(N3CCNCC3)cc2)n1 | 149 nM |  |  |
| CN1CCC(c2nc(-c3cccc(S(C)(=O)=O)c3)c(-c3ccnc(NCC4CC4)n3)s2)CC1 | 6 nM | 1330 nM |  |
| CN1CCC(c2nc(-c3cccc(S(C)(=O)=O)c3)c(-c3ccnc(NC4CCOCC4)n3)s2)CC1 | 9 nM | 1560 nM |  |
| CN1CCC(c2nc(-c3cccc(S(C)(=O)=O)c3)c(-c3ccnc(N)n3)s2)CC1 | 33 nM | 4570 nM |  |

Reference: ChEMBL document CHEMBL4265899, “Trisubstituted thiazoles as potent and selective inhibitors of Plasmodium falciparum protein kinase G (PfPKG)” (Bioorg Med Chem Lett, 2018)
